Results reported in ChEMBL document CHEMBL1909046, “DrugMatrix in vitro pharmacology data”.

Experiments:
[1] = target: T1, Alpha-1A adrenergic receptor (Rattus norvegicus, UniProt P43140); test: DRUGMATRIX: Alpha-1A adrenergic receptor radioligand binding (ligand: prazosin); format: cell membranes, Wistar, Submaxillary gland, Membrane; details: Not Active = under 50% inhibition at 10 µM
T1 sequence (P43140 whole entry): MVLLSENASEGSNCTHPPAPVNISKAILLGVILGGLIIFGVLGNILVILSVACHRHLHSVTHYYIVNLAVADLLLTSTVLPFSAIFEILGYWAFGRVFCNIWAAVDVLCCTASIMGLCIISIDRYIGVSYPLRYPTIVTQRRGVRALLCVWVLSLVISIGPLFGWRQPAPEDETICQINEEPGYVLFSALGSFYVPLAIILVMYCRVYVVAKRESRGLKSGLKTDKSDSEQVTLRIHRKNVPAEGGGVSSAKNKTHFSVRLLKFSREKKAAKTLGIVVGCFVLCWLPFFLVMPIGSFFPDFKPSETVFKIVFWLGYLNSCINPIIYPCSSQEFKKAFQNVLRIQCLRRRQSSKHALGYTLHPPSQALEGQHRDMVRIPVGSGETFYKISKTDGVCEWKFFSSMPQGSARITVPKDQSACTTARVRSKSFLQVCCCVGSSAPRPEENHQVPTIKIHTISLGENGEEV

B2 bradykinin receptor = target: T2, B2 bradykinin receptor (Homo sapiens, UniProt P30411); format: cell membranes, Membrane; details: chem-1; further: in other assays of this panel Not Active means under 50% inhibition at 10 µM
T2 sequence (P30411 whole entry): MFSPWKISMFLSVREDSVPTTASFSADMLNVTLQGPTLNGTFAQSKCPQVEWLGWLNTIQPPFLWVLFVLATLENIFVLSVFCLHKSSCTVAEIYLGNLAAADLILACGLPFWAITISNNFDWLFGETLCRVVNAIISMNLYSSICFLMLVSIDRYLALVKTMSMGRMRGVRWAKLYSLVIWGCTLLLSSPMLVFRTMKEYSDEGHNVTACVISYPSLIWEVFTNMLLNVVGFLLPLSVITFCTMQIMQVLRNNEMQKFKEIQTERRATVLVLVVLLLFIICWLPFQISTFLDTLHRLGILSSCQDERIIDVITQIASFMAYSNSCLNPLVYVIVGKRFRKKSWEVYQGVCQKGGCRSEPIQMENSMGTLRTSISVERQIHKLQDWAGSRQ

[2] = target: 5-hydroxytryptamine receptor 2B (Homo sapiens, UniProt P41595); format: cell membranes, CHO-K1, Membrane; further: in other assays of this panel Not Active means under 50% inhibition at 10 µM
[3] = DRUGMATRIX: Serotonin (5-Hydroxytryptamine) 5-HT3 radioligand binding (ligand: [3H] GR-65630); format: cell membranes, Membrane; details: hek293; Not Active = under 50% inhibition at 10 µM
[4] = target: Prostaglandin G/H synthase 1 (Homo sapiens, UniProt P23219); test: biochemical; format: tissue-based, Platelet; details: platelet;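 further: inhibition of COX-1 enzyme activity, with arachidonic acid supplied as substrate; in other assays of this panel Not Active means under 50% inhibition at 10 µM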
[5] = DRUGMATRIX: GABAA, Chloride Channel, TBOB radioligand binding (ligand: [3H] TBOB); format: cell membranes, Rattus norvegicus, Wistar, Cerebral cortex, Membrane; details: Not Active = under 50% inhibition at 10 µM
[6] = target: T3, Amine oxidase [flavin-containing] A (Homo sapiens, UniProt P21397); test: DRUGMATRIX: Monoamine Oxidase MAO-A enzyme inhibition (substrate: Kynuramine); parameters: species or system BTI-TN-5B1-4; details: bti-tn-5b1-4; Not Active = under 50% inhibition at 10 µM
T3 sequence (P21397 whole entry): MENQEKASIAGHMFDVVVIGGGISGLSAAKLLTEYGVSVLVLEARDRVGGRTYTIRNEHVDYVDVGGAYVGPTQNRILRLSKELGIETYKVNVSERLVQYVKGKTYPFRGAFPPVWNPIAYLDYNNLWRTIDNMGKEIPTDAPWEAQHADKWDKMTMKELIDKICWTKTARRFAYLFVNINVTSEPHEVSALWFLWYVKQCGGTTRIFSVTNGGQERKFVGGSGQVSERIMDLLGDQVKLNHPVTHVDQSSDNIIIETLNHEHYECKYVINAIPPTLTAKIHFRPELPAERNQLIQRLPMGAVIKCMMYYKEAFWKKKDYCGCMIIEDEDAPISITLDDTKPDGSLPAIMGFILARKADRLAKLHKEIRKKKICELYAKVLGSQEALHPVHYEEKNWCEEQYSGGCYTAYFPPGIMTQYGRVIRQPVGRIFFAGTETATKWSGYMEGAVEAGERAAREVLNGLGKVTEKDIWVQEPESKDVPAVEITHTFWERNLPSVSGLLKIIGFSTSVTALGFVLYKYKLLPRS

[7] = target: T4, Neuropeptide Y receptor type 2 (Homo sapiens, UniProt P49146); format: cell membranes, Membrane; details: kan-ts; further: in other assays of this panel Not Active means under 50% inhibition at 10 µM
T4 sequence (P49146 whole entry): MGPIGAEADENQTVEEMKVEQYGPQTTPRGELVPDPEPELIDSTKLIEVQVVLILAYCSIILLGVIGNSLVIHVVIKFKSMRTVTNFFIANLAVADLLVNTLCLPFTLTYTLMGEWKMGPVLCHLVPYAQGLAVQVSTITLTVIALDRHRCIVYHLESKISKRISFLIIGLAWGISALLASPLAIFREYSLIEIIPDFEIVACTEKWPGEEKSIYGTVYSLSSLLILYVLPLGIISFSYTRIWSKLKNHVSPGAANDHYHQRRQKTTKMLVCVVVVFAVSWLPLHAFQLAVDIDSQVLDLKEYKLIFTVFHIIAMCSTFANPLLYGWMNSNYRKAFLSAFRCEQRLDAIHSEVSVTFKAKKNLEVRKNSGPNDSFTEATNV

[8] = DRUGMATRIX: Phorbol Ester radioligand binding (ligand: [3H] PDBu); format: cell membranes, Mus musculus, ICR, Brain, Membrane; details: Not Active = under 50% inhibition at 10 µM
Caspase-1 = target: T5, Caspase-1 (Homo sapiens, UniProt P29466); parameters: species or system Escherichia coli
T5 sequence (P29466 whole entry): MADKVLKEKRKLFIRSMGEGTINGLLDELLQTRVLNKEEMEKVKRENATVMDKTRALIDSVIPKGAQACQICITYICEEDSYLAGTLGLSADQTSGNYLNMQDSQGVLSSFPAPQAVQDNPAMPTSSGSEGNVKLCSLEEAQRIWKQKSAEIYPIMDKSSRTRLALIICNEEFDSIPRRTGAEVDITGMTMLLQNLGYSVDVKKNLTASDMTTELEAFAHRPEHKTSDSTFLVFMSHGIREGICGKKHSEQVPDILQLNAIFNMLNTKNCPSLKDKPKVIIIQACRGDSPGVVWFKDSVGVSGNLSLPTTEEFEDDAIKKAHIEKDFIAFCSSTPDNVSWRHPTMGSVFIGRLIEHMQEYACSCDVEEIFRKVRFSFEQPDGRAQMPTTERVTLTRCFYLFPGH

[9] = target: Mitogen-activated protein kinase 14 (Homo sapiens, UniProt Q16539); parameters: species or system Escherichia coli
[10] = target: Tyrosine-protein kinase Lck (Homo sapiens, UniProt P06239); test: DRUGMATRIX: Protein Tyrosine Kinase, LCK enzyme inhibition (substrate: Poly(Glu:Tyr)); format: cell-based, Insect cells; details: Not Active = under 50% inhibition at 10 µM
Cytochrome P450 2C19 = Cytochrome P450 2C19 (Homo sapiens, UniProt P33261); details: bti-tn-5b1-4; further: in other assays of this panel Not Active means under 50% inhibition at 10 µM
Chain of Cytochrome P450 2C19 (P33261 whole entry): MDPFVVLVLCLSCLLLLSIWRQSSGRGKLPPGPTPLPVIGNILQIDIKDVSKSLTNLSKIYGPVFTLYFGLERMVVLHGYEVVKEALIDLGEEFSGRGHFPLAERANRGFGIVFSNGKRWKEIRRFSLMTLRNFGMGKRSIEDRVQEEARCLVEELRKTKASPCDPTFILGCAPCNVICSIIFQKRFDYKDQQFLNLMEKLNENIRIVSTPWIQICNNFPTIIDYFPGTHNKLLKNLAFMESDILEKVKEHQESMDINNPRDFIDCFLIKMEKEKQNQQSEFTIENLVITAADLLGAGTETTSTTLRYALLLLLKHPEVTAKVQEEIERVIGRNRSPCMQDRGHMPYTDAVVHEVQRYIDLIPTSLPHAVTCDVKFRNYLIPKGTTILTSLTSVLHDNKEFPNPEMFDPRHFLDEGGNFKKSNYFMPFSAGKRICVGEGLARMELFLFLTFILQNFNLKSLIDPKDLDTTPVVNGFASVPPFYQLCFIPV

Chain of Mitogen-activated protein kinase 14 (Q16539 whole entry): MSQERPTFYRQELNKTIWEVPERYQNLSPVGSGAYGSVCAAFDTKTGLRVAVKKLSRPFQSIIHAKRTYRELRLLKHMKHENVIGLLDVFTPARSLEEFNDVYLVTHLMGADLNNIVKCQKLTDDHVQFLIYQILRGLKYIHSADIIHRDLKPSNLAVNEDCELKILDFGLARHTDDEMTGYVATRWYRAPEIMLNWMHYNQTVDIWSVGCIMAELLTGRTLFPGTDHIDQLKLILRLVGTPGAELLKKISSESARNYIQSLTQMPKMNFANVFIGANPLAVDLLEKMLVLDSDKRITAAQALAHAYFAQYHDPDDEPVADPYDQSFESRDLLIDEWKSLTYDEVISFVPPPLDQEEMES
Chain of 5-hydroxytryptamine receptor 2B (P41595 whole entry): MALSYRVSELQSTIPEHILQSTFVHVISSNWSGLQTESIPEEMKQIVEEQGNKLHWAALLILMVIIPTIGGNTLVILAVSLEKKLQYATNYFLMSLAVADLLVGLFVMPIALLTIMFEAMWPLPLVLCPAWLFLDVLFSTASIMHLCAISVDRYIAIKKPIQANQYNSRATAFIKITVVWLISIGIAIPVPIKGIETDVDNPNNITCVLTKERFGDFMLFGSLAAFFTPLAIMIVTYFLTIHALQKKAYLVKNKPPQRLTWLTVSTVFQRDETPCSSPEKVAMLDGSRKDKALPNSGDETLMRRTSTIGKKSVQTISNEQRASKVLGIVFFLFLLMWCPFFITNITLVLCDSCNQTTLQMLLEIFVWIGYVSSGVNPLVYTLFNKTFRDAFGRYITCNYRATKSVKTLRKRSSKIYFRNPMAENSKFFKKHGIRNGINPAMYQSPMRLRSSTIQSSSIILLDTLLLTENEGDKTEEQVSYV
Chain of Tyrosine-protein kinase Lck (P06239 whole entry): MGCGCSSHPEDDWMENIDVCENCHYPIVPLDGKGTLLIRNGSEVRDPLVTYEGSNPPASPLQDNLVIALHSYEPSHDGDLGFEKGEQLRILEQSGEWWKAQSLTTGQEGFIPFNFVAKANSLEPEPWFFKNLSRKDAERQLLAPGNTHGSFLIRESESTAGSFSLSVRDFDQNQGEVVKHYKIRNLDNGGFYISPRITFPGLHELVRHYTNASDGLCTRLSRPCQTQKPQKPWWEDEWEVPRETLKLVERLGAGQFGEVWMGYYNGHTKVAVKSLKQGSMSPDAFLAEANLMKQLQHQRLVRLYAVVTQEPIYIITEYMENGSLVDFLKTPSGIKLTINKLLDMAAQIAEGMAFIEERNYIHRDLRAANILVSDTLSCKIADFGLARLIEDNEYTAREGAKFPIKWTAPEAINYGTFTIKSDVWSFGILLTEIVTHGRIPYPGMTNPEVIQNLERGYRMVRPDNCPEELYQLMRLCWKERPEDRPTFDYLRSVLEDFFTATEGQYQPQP
Chain of Prostaglandin G/H synthase 1 (P23219 whole entry): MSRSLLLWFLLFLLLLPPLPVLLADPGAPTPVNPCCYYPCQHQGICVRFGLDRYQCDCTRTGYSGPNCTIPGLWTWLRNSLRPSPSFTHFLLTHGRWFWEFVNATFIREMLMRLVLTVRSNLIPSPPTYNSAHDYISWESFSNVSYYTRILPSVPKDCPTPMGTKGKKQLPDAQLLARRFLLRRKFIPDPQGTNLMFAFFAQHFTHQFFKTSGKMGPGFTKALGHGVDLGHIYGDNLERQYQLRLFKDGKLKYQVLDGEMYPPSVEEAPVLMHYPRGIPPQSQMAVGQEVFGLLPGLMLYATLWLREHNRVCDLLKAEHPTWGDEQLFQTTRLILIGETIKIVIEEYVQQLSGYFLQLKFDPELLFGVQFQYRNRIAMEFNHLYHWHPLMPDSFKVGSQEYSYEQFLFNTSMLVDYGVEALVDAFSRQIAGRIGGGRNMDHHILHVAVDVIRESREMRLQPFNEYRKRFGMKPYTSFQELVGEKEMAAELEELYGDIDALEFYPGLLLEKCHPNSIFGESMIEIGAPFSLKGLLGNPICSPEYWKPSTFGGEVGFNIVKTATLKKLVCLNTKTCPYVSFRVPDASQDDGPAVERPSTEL

Row | SMILES | IC50 [1] | IC50 (B2 bradykinin receptor) | IC50 ([2]; cho-k1) | IC50 [3] | Ki [3] | IC50 [4] | IC50 [5] | Ki [5] | IC50 [6] | IC50 [7] | IC50 [8] | Ki [8] | IC50 (Caspase-1) | IC50 [9] | IC50 ([10]; insect cells) | IC50 (Cytochrome P450 2C19) | Ki (Cytochrome P450 2C19) | other results
1 | COC(=O)[C@H](c1ccccc1Cl)N1CCc2sccc2C1 [CLOPIDOGREL] | Not Active | Not Active | Not Active | Not Active | Not Active | Not Active | Not Active | Not Active | Not Active | Not Active | Not Active | Not Active | Not Active | Not Active | Not Active | Not Active | Not Active | 
2 | C[C@]12CCC(=O)C=C1CC[C@@H]1[C@@H]2C(=O)C[C@@]2(C)[C@H]1CC[C@]2(O)C(=O)CO [CORTISONE] | Not Active | Not Active | Not Active | Not Active | Not Active | Not Active | Not Active | Not Active | Not Active | Not Active | Not Active | Not Active | Not Active | Not Active | Not Active | Not Active | Not Active | 
3 | CC1=Nc2ccc(Cl)cc2S(=O)(=O)N1 [DIAZOXIDE] | Not Active | Not Active | Not Active | Not Active | Not Active | Not Active | Not Active | Not Active | Not Active | Not Active | Not Active | Not Active | Not Active | Not Active | Not Active | Not Active | Not Active | 
4 | CC(=O)OCC(=O)[C@@]1(OC(C)=O)[C@@H](C)C[C@H]2[C@@H]3C[C@H](F)C4=CC(=O)C=C[C@]4(C)[C@@]3(F)[C@@H](O)C[C@@]21C [DIFLORASONE DIACETATE] | Not Active | Not Active | Not Active | Not Active | Not Active | Not Active | Not Active | Not Active | Not Active | Not Active | Not Active | Not Active | Not Active | Not Active | Not Active | Not Active | Not Active | 
5 | COc1ccc([C@@H]2Sc3ccccc3N(CCN(C)C)C(=O)[C@@H]2OC(C)=O)cc1 [DILTIAZEM] | Not Active | Not Active | Not Active | Not Active | Not Active | Not Active | Not Active | Not Active | Not Active | Not Active | Not Active | Not Active | Not Active | Not Active | Not Active | Not Active | Not Active | 
6 | CCc1ccc(C(=O)C(C)CN2CCCCC2)cc1 (stereo not drawn) [EPERISONE] | Not Active | Not Active | Not Active | Not Active | Not Active | Not Active | Not Active | Not Active | Not Active | Not Active | Not Active | Not Active | Not Active | Not Active | Not Active | Not Active | Not Active | 
7 | C=C1CC[C@H](O)C/C1=C/C=C1\CCC[C@]2(C)[C@@H]([C@H](C)/C=C/[C@H](C)C(C)C)CC[C@@H]12 [ERGOCALCIFEROL] | Not Active | Not Active | Not Active | Not Active | Not Active | Not Active | Not Active | Not Active | Not Active | Not Active | Not Active | Not Active | Not Active | Not Active | Not Active | Not Active | Not Active | 
8 | CN1C[C@H](C(=O)N[C@]2(C)O[C@@]3(O)[C@@H]4CCCN4C(=O)[C@H](Cc4ccccc4)N3C2=O)C=C2c3cccc4[nH]cc(c34)C[C@H]21 [ERGOTAMINE] |  | Not Active |  | Not Active | Not Active | Not Active | Not Active | Not Active | Not Active | Not Active | Not Active | Not Active | Not Active | Not Active |  | Not Active | Not Active | IC50 ([1]; read-out: IC50): 8.06 nM; Ki ([1]; read-out: Ki): 3.26 nM; IC50 ([2]; read-out: IC50): 3.46 nM; Ki ([2]; read-out: Ki): 2.2 nM; IC50 ([10]; read-out: IC50): 6500 nM
